Test results: BindingDB's records for doi:10.1111/cbdd.12330 (Institute of Experimental Botany Ascr and Palacky University, 2014)

Assays:
Assay in all cases: Kinase Selectivity
[1] = biological target: Cyclin-dependent kinase 1 (Homo sapiens, UniProt P06493)
Description: (§1) Cyclin-dependent kinase selectivity was evaluated using CDK1-cyclin B, CDK2-cyclin E, CDK4-cyclin D1, CDK7-cyclin H, and CDK9-cyclin T1.

[2] = biological target: Cyclin-dependent kinase 2 (Homo sapiens, UniProt P24941)
Description: as §1

[3] = biological target: Cyclin-dependent kinase 4 (Homo sapiens, UniProt P11802)
Description: as §1

[4] = biological target: Cyclin-dependent kinase 7 (Homo sapiens, UniProt P50613)
Description: as §1

[5] = biological target: Cyclin-dependent kinase 9 (Homo sapiens, UniProt P50750)
Description: as §1

Cyclin-dependent kinase 1, sequence (P06493 whole entry): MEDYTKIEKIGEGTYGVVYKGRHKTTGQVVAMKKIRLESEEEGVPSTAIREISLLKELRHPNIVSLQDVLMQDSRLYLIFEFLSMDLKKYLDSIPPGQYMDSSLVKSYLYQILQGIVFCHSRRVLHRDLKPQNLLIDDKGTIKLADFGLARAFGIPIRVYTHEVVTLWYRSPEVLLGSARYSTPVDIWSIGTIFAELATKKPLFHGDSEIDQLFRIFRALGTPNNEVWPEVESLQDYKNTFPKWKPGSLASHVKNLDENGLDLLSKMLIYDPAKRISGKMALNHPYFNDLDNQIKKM
Cyclin-dependent kinase 9, sequence (P50750 whole entry): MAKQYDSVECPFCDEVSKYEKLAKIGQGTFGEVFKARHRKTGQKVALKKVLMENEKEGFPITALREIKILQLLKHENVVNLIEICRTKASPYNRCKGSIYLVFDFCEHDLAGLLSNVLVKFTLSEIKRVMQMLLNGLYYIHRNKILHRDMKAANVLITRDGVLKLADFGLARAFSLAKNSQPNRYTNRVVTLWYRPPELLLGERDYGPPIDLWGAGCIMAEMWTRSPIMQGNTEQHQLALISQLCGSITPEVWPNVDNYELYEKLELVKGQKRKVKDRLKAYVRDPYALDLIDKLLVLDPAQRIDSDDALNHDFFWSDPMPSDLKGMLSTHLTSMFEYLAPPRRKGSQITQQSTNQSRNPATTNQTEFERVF
Cyclin-dependent kinase 4, sequence (P11802 whole entry): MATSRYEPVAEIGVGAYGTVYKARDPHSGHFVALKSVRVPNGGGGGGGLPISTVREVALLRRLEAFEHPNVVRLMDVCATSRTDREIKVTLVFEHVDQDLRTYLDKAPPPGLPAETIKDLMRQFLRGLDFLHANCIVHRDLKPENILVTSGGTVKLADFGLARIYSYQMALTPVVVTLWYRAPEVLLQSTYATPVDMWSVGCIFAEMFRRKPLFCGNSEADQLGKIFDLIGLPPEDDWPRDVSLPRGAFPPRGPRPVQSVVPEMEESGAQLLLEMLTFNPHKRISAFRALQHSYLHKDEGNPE
Cyclin-dependent kinase 7, sequence (P50613 whole entry): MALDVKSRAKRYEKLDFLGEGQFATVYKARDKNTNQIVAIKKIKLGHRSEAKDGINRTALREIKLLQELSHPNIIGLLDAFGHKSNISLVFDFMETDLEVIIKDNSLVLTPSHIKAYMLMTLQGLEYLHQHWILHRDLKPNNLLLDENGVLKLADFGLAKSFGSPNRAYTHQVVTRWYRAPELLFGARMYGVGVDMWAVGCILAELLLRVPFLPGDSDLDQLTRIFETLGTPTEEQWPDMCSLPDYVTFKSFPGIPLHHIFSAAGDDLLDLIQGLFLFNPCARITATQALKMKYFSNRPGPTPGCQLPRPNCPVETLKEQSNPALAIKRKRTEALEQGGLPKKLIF

IC50 [1]: 1330 nM | IC50 [2]: 549 nM | IC50 [3]: 454 nM | IC50 [4]: 14900 nM | IC50 [5]: 280 nM
SMILES: Nc1n[nH]c(N)c1/N=N/c1ccncc1 [AAP1742]
